Experimental findings from PMC4938538, “Inhibition of Pig Phosphoenolpyruvate Carboxykinase Isoenzymes by 3-Mercaptopicolinic Acid and Novel Inhibitors” (PLoS ONE, 2016) are described below.

The target in one experiment is T1, wild type PEPCK-C (Sus scrofa, UniProt A0A4X1UM84).
T1 construct: made in house; host or cells: Escherichia coli BL21 (DE3)
T1 sequence (A0A4X1UM84 1-622): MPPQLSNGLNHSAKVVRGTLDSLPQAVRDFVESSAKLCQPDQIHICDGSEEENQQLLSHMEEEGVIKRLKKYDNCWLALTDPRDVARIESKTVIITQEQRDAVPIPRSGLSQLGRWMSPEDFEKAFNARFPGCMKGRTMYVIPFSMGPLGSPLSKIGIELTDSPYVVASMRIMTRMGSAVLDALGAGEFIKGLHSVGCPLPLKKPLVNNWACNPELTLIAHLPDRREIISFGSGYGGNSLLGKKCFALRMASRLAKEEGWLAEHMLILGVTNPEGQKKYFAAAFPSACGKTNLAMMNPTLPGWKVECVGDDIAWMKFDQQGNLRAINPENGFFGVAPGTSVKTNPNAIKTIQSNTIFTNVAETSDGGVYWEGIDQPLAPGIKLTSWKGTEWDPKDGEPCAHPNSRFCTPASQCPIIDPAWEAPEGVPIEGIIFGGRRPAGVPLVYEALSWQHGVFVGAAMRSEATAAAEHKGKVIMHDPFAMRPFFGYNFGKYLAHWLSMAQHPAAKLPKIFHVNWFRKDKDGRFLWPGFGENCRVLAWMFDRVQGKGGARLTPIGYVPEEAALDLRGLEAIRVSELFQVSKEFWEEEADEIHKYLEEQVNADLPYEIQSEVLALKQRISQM
Put plainly: IC50 determination, PEPCK-C activity in the direction of OAA synthesis (coupled spectrophotometric assay with malate dehydrogenase). The settings on record: saturating substrate concentration. Format: biochemical, pig. How it is done: (§1) PEPCK-C activity was measured in an UNICAM 500 spectrometer (UNICAM Analytical Systems, UK) with coupled spectrophotometric assays using pyruvate kinase and lactate dehydrogenase as auxiliary enzymes in PEP synthesis reaction and malate dehydrogenase in the reverse reaction.
Variable inhibitor concentrations of 0–200 μM were also used. Assays were initiated by PEPCK-C addition. Rates were calculated by measuring the decreasing slope of absorbance at 340 nm after subtracting the rate of spontaneous NADH oxidation.
3-MP inhibition assays were fitted in double reciprocal plots. To describe the mixed non-competitive inhibition, the double reciprocal equation can be written as: 1/v = Km/Vmax (1+[I]/Ki) 1/[S]+1/Vmax (1+[I]/αKi) (2)

For experiment [1], the target named is T2, PEPCK-C 139Leu (Sus scrofa, UniProt A0A4X1UM84, M139L).
T2 construct: made in house; host or cells: Escherichia coli BL21 (DE3)
T2 sequence (A0A4X1UM84 1-622 M139L): T1 sequence (A0A4X1UM84 1-622) with M139L
Put plainly: Near-UV circular dichroism spectra. The class given is binding, pig. The following applies: 50 μM compound, 20 μM PEPCK-C (compound 1 also 150 μM, data not shown). The method, then:
(§2) PEPCK-C was diluted to 20 μM in a 20 mM HEPES pH 7.4 buffer, containing 1 mM TCEP. 50 μM 3-MP, compound 1 or compound 2 were added to the PEPCK-C solution. Readings were performed at 25°C in a 0.1 cm cuvette from 320 to 250 nm in a Chirascan CD-spectrophotometer (Applied Photophysics, UK). CD spectra were calculated after subtracting the blank which contained all the components except PEPCK-C.

Experiment [2] deals with T3, PEPCK-C 139Met (Sus scrofa, UniProt A0A4X1UM84).
T3 sequence (A0A4X1UM84 1-622): T1 sequence (A0A4X1UM84 1-622)
Put plainly: Near-UV circular dichroism spectra. The class given is binding, pig. Set-up: His-tag (cleaved yes); made in house; host or cells: Escherichia coli BL21 (DE3). The following applies: 50 μM compound, 20 μM PEPCK-C (compound 1 also 150 μM, data not shown). The method, then: as §2
On the technique in general: Circular dichroism is widely used to follow secondary structure.

In experiment [3] the target is T3, PEPCK-C 139Met. Put plainly: Compound 1 and 2 inhibition assays in PEP synthesis direction (Vmax and Km). More on the design: made in house; host or cells: Escherichia coli BL21 (DE3). The settings on record: for Vmax (GTP) in presence of inhibitor / Vmax (OAA) in presence of inhibitor: 50 μM inhibitor; for Vmax (OAA) in presence of inhibitor: OAA variable substrate. Format: biochemical, pig. How it is done: as §1
(§3) 3-MP inhibitions assays in OAA synthesis direction were carried out as described before with the exception of the variable substrate (50–600 μM for PEP and 10–100 μM for GDP) and 3-MP concentration (10–100 μM). Assays in the direction of PEP synthesis were performed in 1 mL of a 100 mM HEPES buffer pH 7.4, containing 10 mM DTT, 0.2 mM MnCl2, 2 mM MgCl2, 1 mM GTP or 400 μM OAA, 1 mM ADP, 0.2 mM NADH, PEPCK-C and 5 units of each pyruvate kinase and lactate dehydrogenase. Reactions were initiated by addition of OAA. Variable substrates were 5–50 μM OAA or 25–500 μM GTP and 3-MP concentrations were between 10–400 μM. Rates were calculated by measuring the decreasing slope at 340 nm of absorbance after subtracting the rate of spontaneous NADH oxidation in the case of OAA synthesis or the rate of the blank which contained all the components of the mix but PEPCK-C in the case of PEP synthesis.
(§4) Compound 1 and 2 inhibitions assays were performed in PEP synthesis direction as described in 3-MP inhibition assays. Variable substrates were 10–100 μM OAA or 25–500 μM GTP, inhibitors concentrations were around IC50 value (100 μM compound 1 or 50 μM compound 2) and 20 units of each pyruvate kinase and lactate dehydrogenase were also added.
(§5) Data from compound 1 and 2 inhibition assays were represented in double reciprocal plots to calculate Vmax and Km values using GraphPad Prism 3.03 software.

The target in experiment [4] is T2, PEPCK-C 139Leu. The description is as above. The following applies: for Vmax (GTP) in presence of inhibitor / Vmax (OAA) in presence of inhibitor: 50 μM inhibitor; for Vmax (OAA) in presence of inhibitor: OAA variable substrate. The class given is biochemical, pig. How it is done: as §1, §3, §4, §5

Changes are numbered by the printed parent chain. Several values for one entry are separate records, joined by “and”; a condition that tells them apart may be missing. Equal entries are not always repeated.

What is called IC50 is the point on the concentration scale where inhibition reaches its midpoint. Low values mean greater potency in that assay, high ones weaker potency in that assay. As for `O=C(O)c1ncccc1S` [3-MP, 3-mercaptopicolinic acid], at wild type PEPCK-C, the midpoint of inhibition, the IC50, lay at 65 ± 6 µM. In addition, the “Change of near-UV CD spectrum of the enzyme” value (“Change” for short) at PEPCK-C 139Leu [1] and on PEPCK-C 139Met [2] was “modify the CD spectra of both isoenzymes” each time.

On to `CC(=NNC(=S)NC1CCCCC1)c1sc(-c2cccs2)nc1C` [compound 1, N1-cyclohexyl-2-{1-[4-methyl-2-(2-thienyl)-1,3-thiazol-5-yl]ethylidene}hydrazine-1-carbothiamide], for which the “Vmax (GTP) in presence of inhibitor” value was 7.8 µmol/min/mg and 7.8 ± 0.5 µmol/min/mg on PEPCK-C 139Met [3] (GTP variable substrate); 7.2 μmol min^-1 mg^-1 and 7.2 ± 0.4 ns μmol min^-1 mg^-1 at PEPCK-C 139Leu [4] (GTP variable substrate). For the same molecule, the “Vmax (OAA) in presence of inhibitor” value is 6.7 µmol/min/mg and 6.7 ± 1.4 µmol/min/mg at PEPCK-C 139Met [3]; 9.4 μmol min^-1 mg^-1 and 9.4 ± 1.3 ns μmol min^-1 mg^-1 at PEPCK-C 139Leu [4]. The molecule further gave an IC50 against wild type PEPCK-C of 134 ± 4 µM. In addition, the “Change” value on PEPCK-C 139Leu [1] and at PEPCK-C 139Met [2] was “no clear differences in the enzyme CD spectra” throughout.

For the molecule `Cn1nc(-c2ccc(C=NNC(=O)c3ccc(Cl)cc3Cl)s2)cc1C(F)(F)F` [compound 2, N'1-({5-[1-methyl-5-(trifluoromethyl)-1H-pyrazol-3-yl]-2-thienyl}methylidene)-2,4-dichlorobenzene-1-carbohydrazide], at PEPCK-C 139Met [3] (GTP variable substrate), the “Rise of Km value for GTP in presence of the inhibitor” value is on record as “threefold”. Also, the “Vmax (GTP) in presence of inhibitor” value was 5.9 ± 2.3 µmol/min/mg on PEPCK-C 139Met [3] (GTP variable substrate) and 6.1 ± 1.0 ns μmol min^-1 mg^-1 at PEPCK-C 139Leu [4] (GTP variable substrate). The “Vmax (OAA) in presence of inhibitor” value on PEPCK-C 139Met [3] is 4.6 µmol/min/mg and 4.6 ± 1.4 µmol/min/mg; on PEPCK-C 139Leu [4] it was 12.7 µmol/min/mg and 12.7 ± 1.1 µmol/min/mg. At wild type PEPCK-C, this molecule displayed an IC50 of 30 ± 2 µM. At PEPCK-C 139Leu [4] (GTP variable substrate), the “Reduction of Km value for GTP in presence of the inhibitor” value was “about 30%”. Further, the “Change” value on PEPCK-C 139Leu [1] and on PEPCK-C 139Met [2] was “more markedly compound 2 modify the CD spectra of both isoenzymes” throughout.
